Source: the supplement of paper PMC10307832

Compound: CC[C@H](CO)Nc1nc(NCc2ccccc2)c2ncn(C(C)C)c2n1 [Seliciclib] + Cc1cc(Nc2cc(N3CCN(C)CC3)nc(Sc3ccc(NC(=O)C4CC4)cc3)n2)n[nH]1 [Tozasertib] (partner 0.1 µM)
Experiment: relative viability (nuclei count vs DMSO), 5 days (fraction); higher = more cells survive
Summary of the method: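 The day after seeding in 1536-well plates, lung cancer cell lines were treated by pin tool with a single drug, or with a fixed anchor-drug dose together with five library-drug doses (not always all listed) in √10 steps. After 5 days, a combined fix-and-stain solution (final 0.05% Triton X-100, 1% formaldehyde, 1 ug/ml Hoechst) was added. Nuclei counted on 4× images gave relative viability as treated counts over vehicle counts, reported as the median of duplicate plates.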

| Cell Line | relative viability (first compound 0.08 µM) | relative viability (first compound 0.253 µM) | relative viability (first compound 0.8 µM) | relative viability (first compound 2.53 µM) | relative viability (first compound 8 µM) |
| --- | --- | --- | --- | --- | --- |
| 201T | 0.948 | 0.959 | 0.893 | 0.964 | 0.745 |
| A-427 | 0.245 | 0.202 | 0.187 | 0.2 | 0.192 |
| ABC-1 | 0.149 | 0.131 | 0.189 | 0.186 | 0.207 |
| BEN | 0.451 | 0.481 | 0.585 | 0.502 | 0.468 |
| CAL-12T | 0.297 | 0.313 | 0.294 | 0.247 | 0.234 |
| COR-L23 | 0.224 | 0.234 | 0.187 | 0.164 | 0.154 |
| COR-L 105 | 0.423 | 0.321 | 0.366 | 0.346 | 0.436 |
| ChaGo-K-1 | 0.241 | 0.225 | 0.213 | 0.222 | 0.238 |
| EKVX | – | 0.453 | 0.372 | 0.363 | 0.322 |
| EMC-BAC-2 | 0.257 | 0.242 | 0.318 | 0.274 | 0.257 |
| EPLC-272H | 0.247 | 0.231 | 0.297 | 0.181 | 0.153 |
| H3255 | 0.588 | 0.645 | 0.585 | 0.507 | 0.604 |
| HARA | 0.0937 | 0.0958 | 0.111 | 0.782 | 0.0956 |
| HCC-15 | 0.403 | 0.502 | 0.372 | 0.443 | 0.331 |
| HCC-44 | 0.858 | 1.19 | 0.969 | 0.861 | 0.791 |
| HCC-78 | 0.367 | 0.405 | 0.411 | 0.39 | 0.381 |
| HCC-366 | 0.135 | 0.0662 | 0.155 | 0.387 | 0.0931 |
| HCC-827 | 0.415 | 0.413 | 0.42 | 0.383 | 0.324 |
| HOP-62 | 0.388 | 0.354 | 0.38 | 0.377 | 0.244 |
| LC-2-ad | 0.55 | 0.479 | 0.429 | 0.426 | 0.438 |
| LCLC-97TM1 | 0.355 | 0.248 | 0.243 | 0.168 | 0.153 |
| LCLC-103H | 0.443 | 0.583 | 0.532 | 0.434 | 0.399 |
| LK-2 | 0.203 | 0.154 | 0.17 | 0.175 | 0.168 |
| LOU-NH91 | 0.638 | 0.686 | 0.583 | 0.62 | 0.515 |

| Cell Line | relative viability (first compound 0.08 µM) | relative viability (first compound 0.253 µM) | relative viability (first compound 0.8 µM) | relative viability (first compound 2.53 µM) | relative viability (first compound 8 µM) |
| --- | --- | --- | --- | --- | --- |
| LU99A | 0.282 | 0.29 | 0.32 | 0.209 | 0.205 |
| LXF-289 | 0.189 | 0.192 | 0.203 | 0.18 | 0.158 |
| NCI-H23 | 0.424 | 0.368 | 0.379 | 0.426 | 0.322 |
| NCI-H322M | 0.49 | 0.497 | 0.474 | 0.462 | 0.435 |
| NCI-H358 | 0.11 | 0.0892 | 0.112 | 0.104 | 0.11 |
| NCI-H441 | 0.729 | 0.598 | 0.704 | 0.513 | 0.406 |
| NCI-H460 | 0.525 | 0.561 | 0.502 | 0.465 | 0.363 |
| NCI-H520 | 0.47 | – | 0.406 | 0.459 | 0.573 |
| NCI-H522 | 0.711 | 0.523 | 0.547 | 0.49 | 0.614 |
| NCI-H596 | 0.862 | – | 0.849 | 1.03 | 0.865 |
| NCI-H647 | 0.278 | – | 0.262 | 0.348 | 0.303 |
| NCI-H650 | 0.693 | 0.782 | 0.704 | 0.464 | 0.584 |
| NCI-H661 | 0.338 | 0.362 | 0.373 | 0.359 | 0.355 |
| NCI-H727 | 0.616 | 0.89 | 0.528 | 0.557 | 0.487 |
| NCI-H838 | 0.252 | 0.257 | 0.304 | 0.25 | 0.253 |
| NCI-H1355 | 0.586 | 0.517 | 0.513 | 0.506 | 0.388 |
| NCI-H1395 | 0.738 | 0.718 | 0.719 | 0.718 | 0.69 |
| NCI-H1437 | 0.425 | 0.431 | 0.405 | 0.4 | 0.352 |
| NCI-H1648 | 0.531 | 0.825 | 0.413 | 0.362 | 0.364 |
| NCI-H1650 | 0.387 | 0.437 | 0.364 | 0.422 | 0.318 |
| NCI-H1651 | 0.664 | 0.623 | 0.652 | 0.778 | 0.542 |
| NCI-H1666 | 0.684 | 0.696 | 0.623 | 0.561 | 0.428 |
| NCI-H1734 | 0.269 | 0.245 | 0.277 | 0.247 | 0.257 |
| NCI-H1755 | 0.617 | 0.605 | 0.62 | 0.502 | 0.534 |

| Cell Line | relative viability (first compound 0.08 µM) | relative viability (first compound 0.253 µM) | relative viability (first compound 0.8 µM) | relative viability (first compound 2.53 µM) | relative viability (first compound 8 µM) |
| --- | --- | --- | --- | --- | --- |
| NCI-H1793 | 0.329 | 0.337 | 0.333 | 0.501 | 0.234 |
| NCI-H1915 | 0.486 | 0.437 | 0.43 | 0.444 | 0.315 |
| NCI-H1944 | 0.263 | 0.242 | 0.235 | 0.225 | 0.234 |
| NCI-H1975 | 0.777 | 0.769 | 0.704 | 0.681 | 0.296 |
| NCI-H1993 | 0.546 | 0.578 | 0.596 | 0.541 | 0.508 |
| NCI-H2009 | 0.767 | 0.742 | 0.809 | 0.69 | 0.635 |
| NCI-H2023 | 0.393 | 0.357 | 0.337 | 0.36 | 0.22 |
| NCI-H2085 | 0.807 | 0.96 | 0.737 | 0.619 | 0.664 |
| NCI-H2087 | 0.252 | 0.234 | 0.242 | 0.231 | 0.192 |
| NCI-H2126 | 0.868 | 0.823 | 0.846 | 0.676 | 0.736 |
| NCI-H2170 | 0.728 | 0.707 | 0.589 | 0.83 | 0.507 |
| NCI-H2228 | 0.313 | 0.318 | 0.267 | 0.241 | 0.178 |
| NCI-H2342 | 0.665 | 0.404 | 0.395 | 0.538 | 0.538 |
| NCI-H2347 | 0.632 | 0.517 | 0.522 | 0.645 | 0.547 |
| NCI-H2405 | 0.753 | 0.797 | 0.762 | 0.602 | 0.601 |
| NCI-H3122 | 0.428 | 0.347 | 0.393 | 0.378 | 0.329 |
| PC-3 [JPC-3] | 0.883 | 0.837 | 0.871 | 0.88 | 0.708 |
| PC-14 | 0.551 | 0.608 | 0.55 | 0.574 | 0.445 |
| RERF-LC-KJ | 0.455 | 0.537 | 0.441 | 0.493 | 0.457 |
| SK-LU-1 | 0.33 | 0.383 | 0.354 | 0.314 | 0.326 |
| SK-MES-1 | 0.907 | 0.939 | 0.807 | 0.881 | 0.674 |
| SW 900 | 0.79 | 0.689 | 0.488 | 0.401 | 0.307 |
| SW 1573 | 0.248 | 0.162 | 0.195 | 0.136 | 0.175 |
| UMC-11 | 0.202 | 0.202 | 0.214 | 0.194 | 0.202 |
